# Test results from the kinase profiling compilation of Christmann-Franck et al. (2016).
# Columns and labels:
# Experiment in all cases: radiometric filter-binding kinase assay, Kinase HotSpot
# Settings in all cases: compound 0.5 µM; ATP 10 µM
# EPHB1 (human) = EPHB1 (human) (UniProt P54762)
# STK10 (human) = STK10 (human) (UniProt O94804)
# CDK7 CCNH MNAT1 (human) = CDK7 CCNH MNAT1 (human) (UniProt P50613+P51948+P51946)
# MAPK8 (human) = MAPK8 (human) (UniProt P45983)
# NUAK2 (human) = NUAK2 (human) (UniProt Q9H093)
# AKT2 (human) = AKT2 (human) (UniProt P31751)
# STK24 (human) = STK24 (human) (UniProt Q9Y6E0)
# NEK2 (human) = NEK2 (human) (UniProt P51955)
# TAOK2 (human) = TAOK2 (human) (UniProt Q9UL54)
# MYLK2 (human) = MYLK2 (human) (UniProt Q9H1R3)
# MYLK2 (human), sequence (Q9H1R3 whole entry, looked up): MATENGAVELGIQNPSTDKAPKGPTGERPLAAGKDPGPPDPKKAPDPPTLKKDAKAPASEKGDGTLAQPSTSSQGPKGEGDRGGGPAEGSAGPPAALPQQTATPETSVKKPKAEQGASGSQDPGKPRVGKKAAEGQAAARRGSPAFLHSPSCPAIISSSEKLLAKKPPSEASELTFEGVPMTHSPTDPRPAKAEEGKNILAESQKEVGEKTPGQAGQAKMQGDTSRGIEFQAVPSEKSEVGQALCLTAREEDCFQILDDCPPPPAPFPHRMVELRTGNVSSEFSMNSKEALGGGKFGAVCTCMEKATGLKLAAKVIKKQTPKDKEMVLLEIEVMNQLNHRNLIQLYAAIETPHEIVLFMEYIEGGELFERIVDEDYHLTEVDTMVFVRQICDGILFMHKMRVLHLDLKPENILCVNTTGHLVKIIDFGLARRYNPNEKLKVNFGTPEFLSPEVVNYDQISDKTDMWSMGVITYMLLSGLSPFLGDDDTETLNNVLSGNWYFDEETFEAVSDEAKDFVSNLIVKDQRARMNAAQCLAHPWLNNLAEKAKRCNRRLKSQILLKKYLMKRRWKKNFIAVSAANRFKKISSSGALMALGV
# TSSK2 (human) = TSSK2 (human) (UniProt Q96PF2)
# MAPK9 (human) = MAPK9 (human) (UniProt P45984)
# IRAK1 (human) = IRAK1 (human) (UniProt P51617)
# PRKCD (human) = PRKCD (human) (UniProt Q05655)
# PRKCD (human), sequence (Q05655 whole entry, looked up): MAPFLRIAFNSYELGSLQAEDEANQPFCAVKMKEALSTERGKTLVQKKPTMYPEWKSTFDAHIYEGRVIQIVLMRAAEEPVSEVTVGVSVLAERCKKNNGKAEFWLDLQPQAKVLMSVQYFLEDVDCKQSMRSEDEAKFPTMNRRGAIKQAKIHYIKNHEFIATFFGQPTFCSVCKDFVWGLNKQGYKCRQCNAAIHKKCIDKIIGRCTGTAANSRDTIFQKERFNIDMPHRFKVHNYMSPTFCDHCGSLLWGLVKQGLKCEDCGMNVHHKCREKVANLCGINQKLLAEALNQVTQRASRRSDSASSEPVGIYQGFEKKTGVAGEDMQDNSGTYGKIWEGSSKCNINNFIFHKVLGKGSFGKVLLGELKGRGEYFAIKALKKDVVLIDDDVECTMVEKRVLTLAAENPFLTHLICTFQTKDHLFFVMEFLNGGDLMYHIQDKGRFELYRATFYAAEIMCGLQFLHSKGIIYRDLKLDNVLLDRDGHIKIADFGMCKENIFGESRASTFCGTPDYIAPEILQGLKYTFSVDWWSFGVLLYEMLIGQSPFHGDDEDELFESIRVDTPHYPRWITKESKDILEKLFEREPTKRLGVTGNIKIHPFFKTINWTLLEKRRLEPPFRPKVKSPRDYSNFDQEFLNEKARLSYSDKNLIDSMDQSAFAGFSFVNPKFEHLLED
# PTK6 (human) = PTK6 (human) (UniProt Q13882)
# BMX (human) = BMX (human) (UniProt P51813)
# ITK (human) = ITK (human) (UniProt Q08881)
# STK3 (human) = STK3 (human) (UniProt Q13188)
# DCLK2 (human) = DCLK2 (human) (UniProt Q8N568)
# FGFR2 (human) = FGFR2 (human) (UniProt P21802)
# FGFR2 (human), sequence (P21802 whole entry, looked up): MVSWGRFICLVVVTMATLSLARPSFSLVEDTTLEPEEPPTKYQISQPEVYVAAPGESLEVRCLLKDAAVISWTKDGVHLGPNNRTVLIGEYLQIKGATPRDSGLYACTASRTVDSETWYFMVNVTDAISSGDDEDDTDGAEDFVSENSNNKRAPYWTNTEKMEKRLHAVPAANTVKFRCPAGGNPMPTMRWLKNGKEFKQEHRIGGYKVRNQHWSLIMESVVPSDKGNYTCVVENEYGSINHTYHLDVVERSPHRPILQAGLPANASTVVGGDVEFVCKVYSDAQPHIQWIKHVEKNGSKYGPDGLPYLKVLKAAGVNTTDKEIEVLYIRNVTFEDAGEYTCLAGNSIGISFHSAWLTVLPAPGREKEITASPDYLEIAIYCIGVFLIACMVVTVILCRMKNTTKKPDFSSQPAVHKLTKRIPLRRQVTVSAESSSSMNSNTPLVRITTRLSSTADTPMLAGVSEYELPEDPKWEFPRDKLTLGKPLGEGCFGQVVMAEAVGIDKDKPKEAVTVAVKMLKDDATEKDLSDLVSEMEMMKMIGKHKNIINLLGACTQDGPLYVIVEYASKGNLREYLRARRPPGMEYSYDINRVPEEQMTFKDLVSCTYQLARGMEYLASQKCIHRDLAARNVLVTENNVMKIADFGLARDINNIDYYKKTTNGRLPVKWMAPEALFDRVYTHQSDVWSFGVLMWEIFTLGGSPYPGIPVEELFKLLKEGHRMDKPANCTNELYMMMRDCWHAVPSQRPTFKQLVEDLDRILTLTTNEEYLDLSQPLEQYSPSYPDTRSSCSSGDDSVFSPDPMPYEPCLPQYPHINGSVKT
# FGFR4 (human) = FGFR4 (human) (UniProt P22455)
# EPHA8 (human) = EPHA8 (human) (UniProt P29322)
# SYK (human) = SYK (human) (UniProt P43405)
# MAPK12 (human) = MAPK12 (human) (UniProt P53778)
# DDR2 (human) = DDR2 (human) (UniProt Q16832)
# MAPKAPK2 (human) = MAPKAPK2 (human) (UniProt P49137)
# MAPKAPK2 (human), sequence (P49137 whole entry, looked up): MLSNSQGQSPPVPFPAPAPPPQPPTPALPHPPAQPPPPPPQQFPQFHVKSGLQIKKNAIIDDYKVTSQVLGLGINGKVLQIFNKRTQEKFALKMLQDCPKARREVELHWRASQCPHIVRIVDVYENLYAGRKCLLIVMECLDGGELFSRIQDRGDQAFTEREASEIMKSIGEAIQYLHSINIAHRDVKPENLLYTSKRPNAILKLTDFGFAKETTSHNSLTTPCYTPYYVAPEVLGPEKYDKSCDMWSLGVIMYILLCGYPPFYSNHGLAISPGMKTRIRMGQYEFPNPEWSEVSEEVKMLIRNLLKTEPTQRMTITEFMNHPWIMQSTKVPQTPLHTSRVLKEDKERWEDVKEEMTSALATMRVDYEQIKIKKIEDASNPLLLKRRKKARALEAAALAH
# HCK (human) = HCK (human) (UniProt P08631)
# BTK (human) = BTK (human) (UniProt Q06187)
# BTK (human), sequence (Q06187 whole entry, looked up): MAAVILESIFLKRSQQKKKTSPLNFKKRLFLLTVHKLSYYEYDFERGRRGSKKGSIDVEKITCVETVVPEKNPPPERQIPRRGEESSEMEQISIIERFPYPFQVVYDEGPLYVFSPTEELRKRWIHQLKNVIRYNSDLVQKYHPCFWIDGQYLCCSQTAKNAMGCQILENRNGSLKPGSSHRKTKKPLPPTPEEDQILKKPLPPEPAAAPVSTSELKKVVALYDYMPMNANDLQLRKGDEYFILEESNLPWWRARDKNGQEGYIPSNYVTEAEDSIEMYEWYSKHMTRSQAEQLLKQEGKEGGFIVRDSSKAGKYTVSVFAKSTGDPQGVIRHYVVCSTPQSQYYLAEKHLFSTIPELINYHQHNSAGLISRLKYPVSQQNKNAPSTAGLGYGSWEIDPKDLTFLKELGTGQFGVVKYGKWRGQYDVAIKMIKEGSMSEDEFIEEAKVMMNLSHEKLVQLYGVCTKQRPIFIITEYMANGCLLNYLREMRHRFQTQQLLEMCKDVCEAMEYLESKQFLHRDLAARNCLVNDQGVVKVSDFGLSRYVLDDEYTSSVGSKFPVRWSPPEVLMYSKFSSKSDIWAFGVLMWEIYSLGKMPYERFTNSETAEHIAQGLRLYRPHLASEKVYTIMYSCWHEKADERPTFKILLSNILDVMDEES
# CDK4 CCND1 (human) = CDK4 CCND1 (human) (UniProt P24385+P11802)
# CSNK1E (human) = CSNK1E (human) (UniProt P49674)
# IGF1R (human) = IGF1R (human) (UniProt P08069)
# SRPK3 (human) = SRPK3 (human) (UniProt Q9UPE1)
# HIPK3 (human) = HIPK3 (human) (UniProt Q9H422)
# PRKD2 (human) = PRKD2 (human) (UniProt Q9BZL6)
# MKNK2 (human) = MKNK2 (human) (UniProt Q9HBH9)
# SRC (human) = SRC (human) (UniProt P12931)
# CDK4 CCND3 (human) = CDK4 CCND3 (human) (UniProt P30281+P11802)
# PLK2 (human) = PLK2 (human) (UniProt Q9NYY3)
# PRKCB2 (human) = PRKCB2 (human) (UniProt P05771)
# VRK1 (human) = VRK1 (human) (UniProt Q99986)
# BLK (human) = BLK (human) (UniProt P51451)
# DMPK (human) = DMPK (human) (UniProt Q09013)
# DMPK (human), sequence (Q09013 whole entry, looked up): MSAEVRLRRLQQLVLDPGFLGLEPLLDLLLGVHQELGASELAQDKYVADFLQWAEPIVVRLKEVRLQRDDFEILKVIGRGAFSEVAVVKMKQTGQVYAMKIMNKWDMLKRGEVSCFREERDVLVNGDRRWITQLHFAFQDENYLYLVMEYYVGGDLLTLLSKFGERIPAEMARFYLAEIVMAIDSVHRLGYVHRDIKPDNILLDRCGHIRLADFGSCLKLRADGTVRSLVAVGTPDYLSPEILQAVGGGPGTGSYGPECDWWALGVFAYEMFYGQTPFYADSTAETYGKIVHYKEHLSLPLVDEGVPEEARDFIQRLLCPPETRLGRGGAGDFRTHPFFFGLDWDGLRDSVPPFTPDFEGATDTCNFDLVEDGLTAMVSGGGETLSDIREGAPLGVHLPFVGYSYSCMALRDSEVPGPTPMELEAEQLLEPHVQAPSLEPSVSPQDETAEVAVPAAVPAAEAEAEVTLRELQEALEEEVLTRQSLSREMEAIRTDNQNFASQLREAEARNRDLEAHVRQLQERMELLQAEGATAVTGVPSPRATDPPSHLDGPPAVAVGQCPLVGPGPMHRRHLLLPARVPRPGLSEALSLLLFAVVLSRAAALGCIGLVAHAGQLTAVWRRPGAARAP
# CDK7 CCNH MNAT1 (human), sequence (P50613 whole entry, looked up): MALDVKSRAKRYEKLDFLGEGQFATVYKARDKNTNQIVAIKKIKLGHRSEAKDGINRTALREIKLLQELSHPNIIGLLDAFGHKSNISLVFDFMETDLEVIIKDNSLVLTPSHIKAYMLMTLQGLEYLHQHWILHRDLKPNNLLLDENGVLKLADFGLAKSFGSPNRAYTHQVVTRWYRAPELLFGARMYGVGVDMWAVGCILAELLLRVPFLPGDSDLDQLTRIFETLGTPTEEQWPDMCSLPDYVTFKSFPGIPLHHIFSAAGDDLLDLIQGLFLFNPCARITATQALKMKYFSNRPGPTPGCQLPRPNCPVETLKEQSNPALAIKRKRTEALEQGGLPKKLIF
# CDK7 CCNH MNAT1 (human), sequence (P51946 whole entry, looked up): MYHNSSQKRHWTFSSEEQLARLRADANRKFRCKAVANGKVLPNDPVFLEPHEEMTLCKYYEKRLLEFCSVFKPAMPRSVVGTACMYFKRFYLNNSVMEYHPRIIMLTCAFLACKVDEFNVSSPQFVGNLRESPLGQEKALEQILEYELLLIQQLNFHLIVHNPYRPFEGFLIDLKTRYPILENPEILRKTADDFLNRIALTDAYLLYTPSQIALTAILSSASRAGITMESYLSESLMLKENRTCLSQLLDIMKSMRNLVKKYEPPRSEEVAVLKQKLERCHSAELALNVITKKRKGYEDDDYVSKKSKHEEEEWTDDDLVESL
# CDK7 CCNH MNAT1 (human), sequence (P51948 whole entry, looked up): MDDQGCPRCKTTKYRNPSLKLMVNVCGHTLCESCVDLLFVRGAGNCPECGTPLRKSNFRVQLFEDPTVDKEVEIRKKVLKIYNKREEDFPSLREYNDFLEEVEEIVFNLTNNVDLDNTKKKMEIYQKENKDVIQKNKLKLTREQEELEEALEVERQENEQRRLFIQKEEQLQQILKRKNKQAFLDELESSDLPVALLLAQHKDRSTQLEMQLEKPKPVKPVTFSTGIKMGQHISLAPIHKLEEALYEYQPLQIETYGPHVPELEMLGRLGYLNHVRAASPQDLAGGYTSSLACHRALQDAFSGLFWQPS
smiles,measurement,setting,value
Cc1cc(Nc2nc(-c3ccccc3)nc3ccccc23)n[nH]1,residual activity,EPHB1 (human),93.1%
same,residual activity,STK10 (human),56.2%
same,residual activity,CDK7 CCNH MNAT1 (human),73.3%
same,residual activity,MAPK8 (human),92%
same,residual activity,NUAK2 (human),71.1%
same,residual activity,AKT2 (human),127%
same,residual activity,STK24 (human),66%
same,residual activity,NEK2 (human),99.3%
same,residual activity,TAOK2 (human),90.3%
same,residual activity,MYLK2 (human),62.8%
same,residual activity,TSSK2 (human),105%
same,residual activity,MAPK9 (human),92.4%
same,residual activity,IRAK1 (human),79.3%
same,residual activity,PRKCD (human),91.3%
same,residual activity,PTK6 (human),61.6%
same,residual activity,BMX (human),41.1%
same,residual activity,ITK (human),45.4%
same,residual activity,STK3 (human),58.5%
same,residual activity,DCLK2 (human),87.4%
same,residual activity,FGFR2 (human),83.7%
same,residual activity,FGFR4 (human),81.9%
same,residual activity,EPHA8 (human),98.2%
same,residual activity,SYK (human),61.9%
same,residual activity,MAPK12 (human),86.8%
same,residual activity,DDR2 (human),93.2%
same,residual activity,MAPKAPK2 (human),100%
same,residual activity,HCK (human),77.3%
same,residual activity,BTK (human),43.4%
same,residual activity,CDK4 CCND1 (human),100%
same,residual activity,CSNK1E (human),97.4%
same,residual activity,IGF1R (human),70.8%
same,residual activity,SRPK3 (human),61.5%
same,residual activity,HIPK3 (human),88.5%
same,residual activity,PRKD2 (human),75.9%
same,residual activity,MKNK2 (human),71.8%
same,residual activity,SRC (human),24.4%
same,residual activity,CDK4 CCND3 (human),94.4%
same,residual activity,PLK2 (human),110%
same,residual activity,PRKCB2 (human),87.3%
same,residual activity,VRK1 (human),81%
same,residual activity,BLK (human),56.2%
same,residual activity,DMPK (human),100%
COc1cc2c(N3CCN(C(=O)Nc4ccc(OC(C)C)cc4)CC3)ncnc2cc1OCCCN1CCCCC1,residual activity,EPHB1 (human),96.6%
same,residual activity,STK10 (human),95%
same,residual activity,CDK7 CCNH MNAT1 (human),109%
same,residual activity,MAPK8 (human),105%
same,residual activity,NUAK2 (human),100%
same,residual activity,AKT2 (human),97.9%
same,residual activity,STK24 (human),102%
same,residual activity,NEK2 (human),101%
same,residual activity,TAOK2 (human),102%
same,residual activity,MYLK2 (human),101%
same,residual activity,TSSK2 (human),96.6%
same,residual activity,MAPK9 (human),103%
same,residual activity,IRAK1 (human),96.1%
same,residual activity,PRKCD (human),101%
same,residual activity,PTK6 (human),92.9%
same,residual activity,BMX (human),109%
same,residual activity,ITK (human),99%
same,residual activity,STK3 (human),94.7%
same,residual activity,DCLK2 (human),103%
same,residual activity,FGFR2 (human),99.8%
same,residual activity,FGFR4 (human),87.8%
same,residual activity,EPHA8 (human),96.6%
same,residual activity,SYK (human),102%
same,residual activity,MAPK12 (human),96.4%
same,residual activity,DDR2 (human),102%
same,residual activity,MAPKAPK2 (human),100%
same,residual activity,HCK (human),93.2%
same,residual activity,BTK (human),102%
same,residual activity,CDK4 CCND1 (human),92.5%
same,residual activity,CSNK1E (human),99.1%
same,residual activity,IGF1R (human),97.7%
same,residual activity,SRPK3 (human),102%
same,residual activity,HIPK3 (human),101%
same,residual activity,PRKD2 (human),96.4%
same,residual activity,MKNK2 (human),99%
same,residual activity,SRC (human),102%
same,residual activity,CDK4 CCND3 (human),104%
same,residual activity,PLK2 (human),99.8%
same,residual activity,PRKCB2 (human),93.1%
same,residual activity,VRK1 (human),100%
same,residual activity,BLK (human),100%
same,residual activity,DMPK (human),101%
CCc1nc(-c2ccc(OC)cc2)[nH]c1-c1ccncc1,residual activity,EPHB1 (human),104%
same,residual activity,STK10 (human),96.8%
same,residual activity,CDK7 CCNH MNAT1 (human),97.3%
same,residual activity,MAPK8 (human),98.9%
same,residual activity,NUAK2 (human),129%
same,residual activity,AKT2 (human),100%
same,residual activity,STK24 (human),93.2%
same,residual activity,NEK2 (human),100%
same,residual activity,TAOK2 (human),98.2%
same,residual activity,MYLK2 (human),101%
same,residual activity,TSSK2 (human),98.7%
same,residual activity,MAPK9 (human),101%
same,residual activity,IRAK1 (human),128%
same,residual activity,PRKCD (human),98.5%
same,residual activity,PTK6 (human),88.5%
same,residual activity,BMX (human),93.4%
same,residual activity,ITK (human),97.4%
same,residual activity,STK3 (human),104%
same,residual activity,DCLK2 (human),103%
same,residual activity,FGFR2 (human),104%
same,residual activity,FGFR4 (human),95.9%
same,residual activity,EPHA8 (human),93.5%
same,residual activity,SYK (human),98.7%
same,residual activity,MAPK12 (human),104%
same,residual activity,DDR2 (human),96.1%
same,residual activity,MAPKAPK2 (human),100%
same,residual activity,HCK (human),95.1%
same,residual activity,BTK (human),106%
same,residual activity,CDK4 CCND1 (human),107%
same,residual activity,CSNK1E (human),95%
same,residual activity,IGF1R (human),99.5%
same,residual activity,SRPK3 (human),102%
same,residual activity,HIPK3 (human),106%
same,residual activity,PRKD2 (human),102%
same,residual activity,MKNK2 (human),88.2%
same,residual activity,SRC (human),95.3%
same,residual activity,CDK4 CCND3 (human),105%
same,residual activity,PLK2 (human),101%
same,residual activity,PRKCB2 (human),109%
same,residual activity,VRK1 (human),104%
same,residual activity,BLK (human),105%
same,residual activity,DMPK (human),102%
